Source: patent US10294202B2, “Pyrrolidinones as herbicides” (FMC Corporation, priority 2013, dated 2019)

Legend:
ryegrass, Italian = assay: Test A pre-/postemergence herbicide test; type: in vivo, Lolium multiflorum
Procedure, shortened: (§1)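 Greenhouse pot test with pre- and postemergence application of surfactant-containing solvent formulations. Postemergence plants were 2–10 cm, one- to two-leaf stage. Response scored visually after ~10 days, 0 (no effect) to 100 (complete control).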

pigweed = assay: Test A pre-/postemergence herbicide test; type: in vivo, Amaranthus retroflexus
Procedure, shortened: as §1

blackgrass = assay: Test A postemergence herbicide test; type: in vivo, Alopecurus myosuroides
Procedure, shortened: (§2)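 Visual injury rating, 0 (no effect) to 100 (complete control), versus untreated controls ~10 days after treatment. Postemergence spray applied at one- to two-leaf stage, plants 2–10 cm tall, potted in loam soil/sand. Greenhouse-held.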

rice = assay: Test B flooded paddy test; type: in vivo, Oryza sativa; conditions: Flood, scale of 0 to 100 where 0 is no effect and 100 is complete control
Procedure, shortened: (§3)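 Scored visually 0–100 (0 no effect, 100 complete control) versus controls after 13 to 15 greenhouse days. Treatment: compound added to paddy water kept 3 cm above soil, on 2-leaf-stage plants.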

barnyardgrass [1] = assay: Test A pre-/postemergence herbicide test; type: in vivo, Echinochloa crus-galli
Procedure, shortened: as §1

barnyardgrass [2] = assay: Test B flooded paddy test; type: in vivo, Echinochloa crus-galli; conditions: Flood, scale of 0 to 100 where 0 is no effect and 100 is complete control
Procedure, shortened: as §3

sedge, umbrella = assay: Test B flooded paddy test; type: in vivo, Cyperus difformis; conditions: Flood, scale of 0 to 100 where 0 is no effect and 100 is complete control
Procedure, shortened: as §3

ducksalad = assay: Test B flooded paddy test; type: in vivo, Heteranthera limosa; conditions: Flood, scale of 0 to 100 where 0 is no effect and 100 is complete control
Procedure, shortened: as §3

ragweed = assay: Test A pre-/postemergence herbicide test; type: in vivo, Ambrosia elatior
Procedure, shortened: as §1

wheat = assay: Test A pre-/postemergence herbicide test; type: in vivo, Triticum aestivum; conditions: Postemergence
Procedure, shortened: as §1

giant foxtail = assay: Test A pre-/postemergence herbicide test; type: in vivo, Setaria faberii
Procedure, shortened: as §1

galium = assay: Test A postemergence herbicide test; type: in vivo, Galium aparine
Procedure, shortened: as §2

corn = assay: Test A pre-/postemergence herbicide test; type: in vivo, Zea mays; conditions: Postemergence
Procedure, shortened: as §1

kochia = assay: Test A pre-/postemergence herbicide test; type: in vivo, Kochia scoparia
Procedure, shortened: as §1

[3] = 125 g ai/ha, visual rating, 0 to 100 scale, 0 no effect, 100 complete control, approximately 10 days, preemergence
[4] = Postemergence, 125 g ai/ha, 0 to 100 scale, 0 is no effect, 100 is complete control
[5] = Postemergence, 500 g ai/ha, 0 to 100 scale (0 no effect, 100 complete control)
[6] = preemergence, 500 g ai/ha, 0 to 100 scale, 0 is no effect and 100 is complete control
[7] = 125 g ai/ha, 0 to 100 scale, 0 is no effect, 100 is complete control
[8] = 500 g ai/ha, 0 to 100 scale (0 no effect, 100 complete control)
[9] = Postemergence, 125 g ai/ha, visual rating on 0 to 100 scale (0 no effect, 100 complete control), approx. 10 days
[10] = Preemergence, 125 g ai/ha, 0 to 100 scale where 0 is no effect and 100 is complete control
[11] = Preemergence, 500 g ai/ha, visual rating on 0 to 100 scale (0 no effect, 100 complete control)
[12] = 125 g ai/ha, visual rating on 0 to 100 scale (0 no effect, 100 complete control), approx. 10 days

COc1ccc(C2CNC(=O)C2C(=O)Nc2ccccc2C(F)(F)F)cc1C(F)(F)F (stereo not drawn) [Compound 240]
Plant response rating, Ryegrass, Italian (ryegrass, Italian; [3]): 0
Plant response rating, Ryegrass, Italian (ryegrass, Italian; [4]): 0
Plant response rating, Ryegrass, Italian (ryegrass, Italian; [5]): 0
Plant response rating, Ryegrass, Italian (ryegrass, Italian; [6]): 0
Plant response rating, Pigweed (pigweed; [3]): 0
Plant response rating, Pigweed (pigweed; [4]): 0
Plant response rating, Pigweed (pigweed; [5]): 0
Plant response rating, Pigweed (pigweed; [6]): 0
Plant response rating, Blackgrass (blackgrass; [7]): 0
Plant response rating, Blackgrass (blackgrass; [8]): 0
Plant response rating, Rice (rice; 1000 g ai/ha): 0
Plant response rating, Barnyardgrass (barnyardgrass [1]; [3]): 20
Plant response rating, Barnyardgrass (barnyardgrass [1]; [4]): 30
Plant response rating, Barnyardgrass (barnyardgrass [1]; [5]): 90
Plant response rating, Barnyardgrass (barnyardgrass [1]; [6]): 50
Plant response rating, Barnyardgrass (barnyardgrass [2]; 1000 g ai/ha): 70
Plant response rating, Sedge, Umbrella (sedge, umbrella; 1000 g ai/ha): 0
Plant response rating, Ducksalad (ducksalad; 1000 g ai/ha): 85
Plant response rating, Ragweed (ragweed; [3]): 0
Plant response rating, Ragweed (ragweed; [4]): 0
Plant response rating, Ragweed (ragweed; [5]): 0
Plant response rating, Ragweed (ragweed; [6]): 0
Plant response rating, Wheat (wheat; [7]): 0
Plant response rating, Wheat (wheat; [8]): 20
Plant response rating, Foxtail, Giant (giant foxtail; [3]): 70
Plant response rating, Foxtail, Giant (giant foxtail; [4]): 40
Plant response rating, Foxtail, Giant (giant foxtail; [5]): 80
Plant response rating, Foxtail, Giant (giant foxtail; [6]): 90
Plant response rating, Galium (galium; [7]): 0
Plant response rating, Galium (galium; [8]): 0
Plant response rating, Corn (corn; [7]): 0
Plant response rating, Corn (corn; [8]): 20
Plant response rating, Kochia (kochia; [3]): 0
Plant response rating, Kochia (kochia; [4]): 0
Plant response rating, Kochia (kochia; [5]): 0
Plant response rating, Kochia (kochia; [6]): 0

O=C1NCC(c2cc3ccccc3o2)C1C(=O)Nc1ccccc1C(F)(F)F (stereo not drawn) [Compound 283]
Plant response rating, Ryegrass, Italian (ryegrass, Italian; [9]): 0
Plant response rating, Ryegrass, Italian (ryegrass, Italian; [5]): 0
Plant response rating, Ryegrass, Italian (ryegrass, Italian; [10]): 0
Ryegrass, Italian plant response rating (ryegrass, Italian; [11]): 0
Plant response rating, Pigweed (pigweed; [9]): 0
Plant response rating, Pigweed (pigweed; [5]): 0
Plant response rating, Pigweed (pigweed; [10]): 0
Plant response rating, Pigweed (pigweed; [6]): 0
Plant response rating, Blackgrass (blackgrass; [7]): 0
Plant response rating, Blackgrass (blackgrass; [8]): 0
Plant response rating, Rice (rice; 500 g ai/ha): 0
Plant response rating, Barnyardgrass (barnyardgrass [1]; [4]): 0
Plant response rating, Barnyardgrass (barnyardgrass [1]; [5]): 60
Plant response rating, Barnyardgrass (barnyardgrass [1]; [10]): 0
Plant response rating, Barnyardgrass (barnyardgrass [1]; [6]): 0
Plant response rating, Barnyardgrass (barnyardgrass [2]; 500 g ai/ha): 20
Plant response rating, Sedge, Umbrella (sedge, umbrella; 500 g ai/ha): 0
Plant response rating, Ducksalad (ducksalad; 500 g ai/ha): 85
Plant response rating, Ragweed (ragweed; [9]): 0
Plant response rating, Ragweed (ragweed; [5]): 0
Plant response rating, Ragweed (ragweed; [10]): 0
Plant response rating, Ragweed (ragweed; [6]): 0
Plant response rating, Wheat (wheat; [12]): 0
Plant response rating, Wheat (wheat; [8]): 0
Plant response rating, Foxtail, Giant (giant foxtail; [4]): 0
Plant response rating, Foxtail, Giant (giant foxtail; [5]): 10
Plant response rating, Foxtail, Giant (giant foxtail; [10]): 0
Plant response rating, Foxtail, Giant (giant foxtail; [6]): 0
Plant response rating, Galium (galium; [7]): 0
Plant response rating, Galium (galium; [8]): 0
Plant response rating, Corn (corn; [7]): 0
Plant response rating, Corn (corn; [8]): 0
Plant response rating, Kochia (kochia; [4]): 0
Plant response rating, Kochia (kochia; [5]): 0
Plant response rating, Kochia (kochia; [10]): 0
Plant response rating, Kochia (kochia; [6]): 0

O=C1NCC(c2cnn(CC(F)(F)F)c2)C1C(=O)Nc1cccc(F)c1F (stereo not drawn) [Compound 299]
Plant response rating, Ryegrass, Italian (ryegrass, Italian; [9]): 0
Plant response rating, Ryegrass, Italian (ryegrass, Italian; [5]): 0
Plant response rating, Ryegrass, Italian (ryegrass, Italian; [10]): 0
Ryegrass, Italian plant response rating (ryegrass, Italian; [11]): 0
Plant response rating, Pigweed (pigweed; [9]): 0
Plant response rating, Pigweed (pigweed; [5]): 0
Plant response rating, Pigweed (pigweed; [10]): 0
Plant response rating, Pigweed (pigweed; [6]): 0
Plant response rating, Blackgrass (blackgrass; [12]): 0
Plant response rating, Blackgrass (blackgrass; [8]): 0
Plant response rating, Rice (rice; 500 g ai/ha): 0
Plant response rating, Barnyardgrass (barnyardgrass [1]; [9]): 30
Plant response rating, Barnyardgrass (barnyardgrass [1]; [5]): 70
Plant response rating, Barnyardgrass (barnyardgrass [1]; [10]): 10
Plant response rating, Barnyardgrass (barnyardgrass [1]; [6]): 70
Plant response rating, Barnyardgrass (barnyardgrass [2]; 500 g ai/ha): 30
Plant response rating, Sedge, Umbrella (sedge, umbrella; 500 g ai/ha): 0
Plant response rating, Ducksalad (ducksalad; 500 g ai/ha): 50
Plant response rating, Ragweed (ragweed; [9]): 0
Plant response rating, Ragweed (ragweed; [5]): 0
Plant response rating, Ragweed (ragweed; [10]): 0
Plant response rating, Ragweed (ragweed; [6]): 0
Plant response rating, Wheat (wheat; [12]): 0
Plant response rating, Wheat (wheat; [8]): 0
Plant response rating, Foxtail, Giant (giant foxtail; [9]): 0
Plant response rating, Foxtail, Giant (giant foxtail; [5]): 50
Plant response rating, Foxtail, Giant (giant foxtail; [10]): 50
Plant response rating, Foxtail, Giant (giant foxtail; [6]): 80
Plant response rating, Galium (galium; [12]): 0
Plant response rating, Galium (galium; [8]): 0
Plant response rating, Corn (corn; [12]): 0
Plant response rating, Corn (corn; [8]): 0
Plant response rating, Kochia (kochia; [9]): 0
Plant response rating, Kochia (kochia; [5]): 0
Plant response rating, Kochia (kochia; [10]): 0
Plant response rating, Kochia (kochia; [6]): 0
